In PMC6756013, “B591, a novel specific pan-PI3K inhibitor, preferentially targets cancer stem cells” (Oncogene, 2019):

Columns and labels:
Assay in all cases: Biochemical kinase profiling (Life Technologies)
[1] = target: SYK (Homo sapiens, UniProt P43405)
Protocol: (§1) Purified PI3K Class I Lipid Kinase, including p110α/p85α, p110β/p85α, p110γ, and p110δ/p85α (Promega, Madison, WI, USA), was respectively incubated with B591 for 30 min at room temperature. The activity of PI3K was evaluated using a PI3-Kinase Activity ELISA kit (K-1000s, Echelon, Salt Lake City, UT, USA) according to the manufacture’s instructions. The assay is a competitive ELISA in which the signal is inversely proportional to the amount of PI(3,4,5)P3 produced. After the PI3-Kinase reactions are complete, reaction products are first mixed and incubated with a PI(3,4,5)P3 detector protein, then added to the PI(3,4,5)P3-coated microplate for competitive binding. A peroxidase-linked secondary detector and colorimetric detection is used to detect PI(3,4,5)P3 detector binding to the plate. The colorimetric signal is inversely proportional to the amount of PI(3,4,5)P3 produced by PI3-Kinase. The absorbance was measured at 450 nm with a Multilabel Reader (PerkinElmer, Waltham, MA, USA). ATP competition assays were executed with varying concentrations of ATP, and five concentrations of ATP were 5 μM, 25 μM, 50 μM, 100 μM, and 200 μM respectively. The IC50 values for inhibition of PI3Kβ by B591 were determined at indicated concentrations of ATP. In addition, B591 selectivity was tested against 39 kinases at Life Technologies.

[2] = target: T1, ERBB2 (HER2) (Homo sapiens, UniProt P04626)
T1 construct: purchased Life Technologies
Protocol: as §1

[3] = target: T2, FGFR4 (Homo sapiens, UniProt P22455)
T2 construct: purchased Life Technologies
Protocol: as §1

[4] = target: PTK2 (FAK) (Homo sapiens, UniProt Q05397)
Protocol: as §1

[5] = target: FYN (Homo sapiens, UniProt P06241)
Protocol: as §1

[6] = target: T3, EPHA2 (Homo sapiens, UniProt P29317)
T3 construct: purchased Life Technologies
Protocol: as §1

[7] = target: T4, EPHB1 (Homo sapiens, UniProt P54762)
T4 construct: purchased Life Technologies
Protocol: as §1

[8] = target: T5, SRC (Homo sapiens, UniProt P12931)
T5 construct: purchased Life Technologies
Protocol: as §1

[9] = target: GSK3B (GSK3 beta) (Homo sapiens, UniProt P49841)
Protocol: as §1

[10] = target: T6, KDR (VEGFR2) (Homo sapiens, UniProt P35968)
T6 construct: purchased Life Technologies
Protocol: as §1

[11] = target: AKT1 (PKB alpha) (Homo sapiens, UniProt P31749)
Protocol: as §1

[12] = target: LYN A (Homo sapiens, UniProt P07948)
Protocol: as §1

[13] = target: T7, FGFR1 (Homo sapiens, UniProt P11362)
T7 construct: purchased Life Technologies
Protocol: as §1

[14] = target: T8, EPHA1 (Homo sapiens, UniProt P21709)
T8 construct: purchased Life Technologies
Protocol: as §1

[15] = target: T9, EGFR (ErbB1) (Homo sapiens, UniProt P00533)
T9 construct: purchased Life Technologies
Protocol: as §1

[16] = target: AKT3 (PKB gamma) (Homo sapiens, UniProt Q9Y243)
Protocol: as §1

[17] = target: AMPK A2/B1/G1 (Homo sapiens, UniProt P54619+P54646+Q9Y478)
Protocol: as §1

[18] = target: T10, PDGFRB (PDGFR beta) (Homo sapiens, UniProt P09619)
T10 construct: purchased Life Technologies
Protocol: as §1

[19] = target: DNA-PK (Homo sapiens, UniProt P78527)
Protocol: as §1

[20] = target: PIK3C3 (hVPS34) (Homo sapiens, UniProt Q8NEB9)
Protocol: as §1

[21] = target: T11, FGFR2 (Homo sapiens, UniProt P21802)
T11 construct: purchased Life Technologies
Protocol: as §1

[22] = target: LYN B (Homo sapiens, UniProt P07948)
Protocol: as §1

[23] = target: PIK3C2B (PI3K-C2 beta) (Homo sapiens, UniProt O00750)
Protocol: as §1

[24] = target: GSK3A (GSK3 alpha) (Homo sapiens, UniProt P49840)
Protocol: as §1

[25] = target: T12, PDGFRA (PDGFR alpha) (Homo sapiens, UniProt P16234)
T12 construct: purchased Life Technologies
Protocol: as §1

[26] = target: AKT2 (PKB beta) (Homo sapiens, UniProt P31751)
Protocol: as §1

[27] = target: AMPK A1/B1/G1 (Homo sapiens, UniProt P54619+Q13131+Q9Y478)
Protocol: as §1

[28] = target: PIK3C2A (PI3K-C2 alpha) (Homo sapiens, UniProt O00443)
Protocol: as §1

[29] = target: T13, MET (cMet) (Homo sapiens, UniProt P08581)
T13 construct: purchased Life Technologies
Protocol: as §1

[30] = target: T14, FGFR3 (Homo sapiens, UniProt P22607)
T14 construct: purchased Life Technologies
Protocol: as §1

[31] = target: JAK1 (Homo sapiens, UniProt P23458)
Protocol: as §1

[32] = target: PDK1 (Homo sapiens, UniProt O15530)
Protocol: as §1

[33] = target: T15, PRKCZ (PKC zeta) (Homo sapiens, UniProt Q05513)
T15 construct: purchased Life Technologies
Protocol: as §1

[34] = target: IGF1R (Homo sapiens, UniProt P08069)
Protocol: as §1

[35] = target: FRAP1 (mTOR) (Homo sapiens, UniProt P42345)
Protocol: as §1

Chain of IGF1R (P08069 31-1367): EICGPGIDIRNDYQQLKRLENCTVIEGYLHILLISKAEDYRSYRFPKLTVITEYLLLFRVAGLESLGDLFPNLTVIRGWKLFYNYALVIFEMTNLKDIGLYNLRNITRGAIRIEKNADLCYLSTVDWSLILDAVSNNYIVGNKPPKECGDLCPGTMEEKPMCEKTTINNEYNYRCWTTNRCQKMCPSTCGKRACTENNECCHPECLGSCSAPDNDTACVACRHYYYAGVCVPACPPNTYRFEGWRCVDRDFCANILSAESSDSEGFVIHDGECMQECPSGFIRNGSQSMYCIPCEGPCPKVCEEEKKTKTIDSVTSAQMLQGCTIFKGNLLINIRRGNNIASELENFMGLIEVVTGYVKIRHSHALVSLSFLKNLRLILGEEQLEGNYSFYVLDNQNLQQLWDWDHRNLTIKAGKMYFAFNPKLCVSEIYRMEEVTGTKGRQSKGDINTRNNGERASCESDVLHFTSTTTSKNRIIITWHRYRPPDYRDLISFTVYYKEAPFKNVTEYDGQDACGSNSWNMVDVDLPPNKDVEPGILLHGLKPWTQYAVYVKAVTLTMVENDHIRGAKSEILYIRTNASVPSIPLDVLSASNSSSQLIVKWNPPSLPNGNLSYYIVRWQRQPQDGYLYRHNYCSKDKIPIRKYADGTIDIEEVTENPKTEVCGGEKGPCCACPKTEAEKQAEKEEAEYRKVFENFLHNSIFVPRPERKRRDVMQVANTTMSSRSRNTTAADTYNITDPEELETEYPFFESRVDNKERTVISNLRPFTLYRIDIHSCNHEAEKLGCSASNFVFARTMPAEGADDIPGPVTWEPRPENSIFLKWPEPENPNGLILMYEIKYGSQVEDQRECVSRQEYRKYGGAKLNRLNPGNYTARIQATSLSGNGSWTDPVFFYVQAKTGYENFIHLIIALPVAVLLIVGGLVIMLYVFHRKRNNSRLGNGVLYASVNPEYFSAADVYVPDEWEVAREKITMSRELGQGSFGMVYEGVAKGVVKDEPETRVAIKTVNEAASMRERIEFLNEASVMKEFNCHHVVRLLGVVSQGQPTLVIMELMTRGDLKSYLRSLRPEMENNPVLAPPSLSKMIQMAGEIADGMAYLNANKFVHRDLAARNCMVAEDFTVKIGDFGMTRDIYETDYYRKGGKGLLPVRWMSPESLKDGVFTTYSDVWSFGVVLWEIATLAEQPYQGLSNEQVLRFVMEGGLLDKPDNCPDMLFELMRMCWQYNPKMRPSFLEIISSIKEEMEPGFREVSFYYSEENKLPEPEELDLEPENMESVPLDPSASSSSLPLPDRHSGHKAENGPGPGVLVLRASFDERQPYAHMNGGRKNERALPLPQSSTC
T8 sequence (P21709 26-976): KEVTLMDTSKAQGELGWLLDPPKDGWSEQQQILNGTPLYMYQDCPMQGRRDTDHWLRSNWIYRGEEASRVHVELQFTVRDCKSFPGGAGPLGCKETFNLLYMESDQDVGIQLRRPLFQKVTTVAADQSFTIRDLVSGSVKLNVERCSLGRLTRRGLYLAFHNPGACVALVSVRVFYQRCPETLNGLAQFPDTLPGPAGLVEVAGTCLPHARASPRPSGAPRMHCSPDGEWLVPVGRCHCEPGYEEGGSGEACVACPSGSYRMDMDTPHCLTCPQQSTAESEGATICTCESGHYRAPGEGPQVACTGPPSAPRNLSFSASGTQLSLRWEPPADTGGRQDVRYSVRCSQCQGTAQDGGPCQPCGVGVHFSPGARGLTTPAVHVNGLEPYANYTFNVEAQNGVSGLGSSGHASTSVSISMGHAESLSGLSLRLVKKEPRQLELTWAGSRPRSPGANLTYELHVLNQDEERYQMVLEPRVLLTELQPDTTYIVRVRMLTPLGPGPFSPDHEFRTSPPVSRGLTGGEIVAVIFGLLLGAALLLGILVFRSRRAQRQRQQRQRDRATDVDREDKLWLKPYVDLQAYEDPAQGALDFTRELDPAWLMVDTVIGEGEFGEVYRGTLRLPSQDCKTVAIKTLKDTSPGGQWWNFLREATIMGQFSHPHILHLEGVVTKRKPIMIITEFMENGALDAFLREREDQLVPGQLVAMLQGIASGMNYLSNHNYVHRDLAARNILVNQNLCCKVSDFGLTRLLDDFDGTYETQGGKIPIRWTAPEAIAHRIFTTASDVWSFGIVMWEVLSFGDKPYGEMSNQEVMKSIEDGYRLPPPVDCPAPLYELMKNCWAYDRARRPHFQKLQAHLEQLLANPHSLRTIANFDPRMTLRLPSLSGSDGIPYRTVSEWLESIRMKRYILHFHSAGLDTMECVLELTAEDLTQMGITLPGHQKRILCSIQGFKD
T4 sequence (P54762 18-984): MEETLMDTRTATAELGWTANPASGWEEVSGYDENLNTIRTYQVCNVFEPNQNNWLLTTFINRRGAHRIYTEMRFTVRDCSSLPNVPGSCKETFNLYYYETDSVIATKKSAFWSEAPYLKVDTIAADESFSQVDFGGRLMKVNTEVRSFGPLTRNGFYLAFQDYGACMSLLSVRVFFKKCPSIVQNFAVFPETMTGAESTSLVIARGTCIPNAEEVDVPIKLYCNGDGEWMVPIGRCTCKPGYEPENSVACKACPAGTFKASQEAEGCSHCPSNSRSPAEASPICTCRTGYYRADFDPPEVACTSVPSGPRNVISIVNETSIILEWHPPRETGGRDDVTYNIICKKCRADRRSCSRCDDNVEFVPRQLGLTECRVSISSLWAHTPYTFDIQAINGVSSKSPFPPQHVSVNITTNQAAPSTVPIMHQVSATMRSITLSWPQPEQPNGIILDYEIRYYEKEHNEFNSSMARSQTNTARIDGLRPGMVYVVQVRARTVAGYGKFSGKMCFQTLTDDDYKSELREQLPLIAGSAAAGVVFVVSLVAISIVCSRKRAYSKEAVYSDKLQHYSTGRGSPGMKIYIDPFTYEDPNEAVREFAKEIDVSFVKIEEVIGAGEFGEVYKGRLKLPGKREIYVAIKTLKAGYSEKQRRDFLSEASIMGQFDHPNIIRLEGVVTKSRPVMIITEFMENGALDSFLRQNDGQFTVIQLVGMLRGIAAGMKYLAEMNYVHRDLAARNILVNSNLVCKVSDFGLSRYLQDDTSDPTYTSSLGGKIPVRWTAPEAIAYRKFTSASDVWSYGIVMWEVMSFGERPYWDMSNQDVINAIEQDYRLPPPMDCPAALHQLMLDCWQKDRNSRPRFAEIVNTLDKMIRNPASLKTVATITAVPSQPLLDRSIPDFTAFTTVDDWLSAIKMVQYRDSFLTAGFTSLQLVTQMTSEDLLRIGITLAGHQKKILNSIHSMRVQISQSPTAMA
Chain of PIK3C2B (PI3K-C2 beta) (O00750 whole entry): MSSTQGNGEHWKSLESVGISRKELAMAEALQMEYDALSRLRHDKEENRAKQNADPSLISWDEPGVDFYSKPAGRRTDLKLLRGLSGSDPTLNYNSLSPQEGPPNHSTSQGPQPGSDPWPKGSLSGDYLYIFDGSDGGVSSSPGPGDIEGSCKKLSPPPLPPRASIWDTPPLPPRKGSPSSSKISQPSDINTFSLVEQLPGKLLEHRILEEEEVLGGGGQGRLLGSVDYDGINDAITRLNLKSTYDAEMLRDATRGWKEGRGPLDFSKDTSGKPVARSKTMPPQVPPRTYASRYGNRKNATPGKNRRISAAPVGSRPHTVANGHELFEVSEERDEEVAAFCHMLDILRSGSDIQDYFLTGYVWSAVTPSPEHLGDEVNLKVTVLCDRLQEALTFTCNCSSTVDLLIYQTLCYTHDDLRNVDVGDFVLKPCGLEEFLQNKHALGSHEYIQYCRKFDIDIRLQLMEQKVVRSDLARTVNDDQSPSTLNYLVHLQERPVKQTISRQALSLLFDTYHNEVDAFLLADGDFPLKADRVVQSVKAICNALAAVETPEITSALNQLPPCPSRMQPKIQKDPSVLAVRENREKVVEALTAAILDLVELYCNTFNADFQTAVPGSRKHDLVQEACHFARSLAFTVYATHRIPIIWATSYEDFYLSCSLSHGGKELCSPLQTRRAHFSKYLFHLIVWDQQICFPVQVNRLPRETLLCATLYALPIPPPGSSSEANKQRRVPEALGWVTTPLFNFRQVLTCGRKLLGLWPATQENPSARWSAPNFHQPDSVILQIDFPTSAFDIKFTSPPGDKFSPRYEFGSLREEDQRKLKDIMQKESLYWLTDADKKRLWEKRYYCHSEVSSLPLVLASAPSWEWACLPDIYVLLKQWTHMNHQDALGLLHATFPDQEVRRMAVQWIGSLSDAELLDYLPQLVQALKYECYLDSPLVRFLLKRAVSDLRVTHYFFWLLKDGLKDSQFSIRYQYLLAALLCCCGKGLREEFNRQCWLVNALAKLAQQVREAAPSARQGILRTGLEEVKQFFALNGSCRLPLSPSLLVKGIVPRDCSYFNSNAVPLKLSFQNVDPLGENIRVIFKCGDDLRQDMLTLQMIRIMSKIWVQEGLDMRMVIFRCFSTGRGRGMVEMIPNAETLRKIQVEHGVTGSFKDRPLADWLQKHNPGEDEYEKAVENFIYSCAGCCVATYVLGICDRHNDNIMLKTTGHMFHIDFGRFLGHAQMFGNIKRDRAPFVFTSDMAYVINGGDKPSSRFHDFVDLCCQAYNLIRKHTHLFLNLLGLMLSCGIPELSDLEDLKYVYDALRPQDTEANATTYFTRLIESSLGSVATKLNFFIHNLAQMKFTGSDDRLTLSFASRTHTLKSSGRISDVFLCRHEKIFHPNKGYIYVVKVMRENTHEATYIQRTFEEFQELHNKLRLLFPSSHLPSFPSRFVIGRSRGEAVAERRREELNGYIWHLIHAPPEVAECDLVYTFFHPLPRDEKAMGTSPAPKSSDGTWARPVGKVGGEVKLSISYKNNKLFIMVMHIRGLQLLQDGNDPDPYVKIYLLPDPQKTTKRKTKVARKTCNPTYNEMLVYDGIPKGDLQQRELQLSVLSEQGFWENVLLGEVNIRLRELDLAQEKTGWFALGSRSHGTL

IC50 [1]: > 500 µM | IC50 [2]: > 500 µM | IC50 [3]: > 500 µM | IC50 [4]: > 500 µM | IC50 [5]: > 500 µM | IC50 [6]: > 500 µM | IC50 [7]: > 500 µM | IC50 [8]: > 500 µM | IC50 [9]: > 500 µM | IC50 [10]: > 500 µM | IC50 [11]: > 500 µM | IC50 [12]: > 500 µM | IC50 [13]: > 500 µM | IC50 [14]: > 500 µM | IC50 [15]: > 500 µM | IC50 [16]: > 500 µM | IC50 [17]: > 500 µM | IC50 [18]: > 500 µM | IC50 [19]: 448 µM | IC50 [20]: 102 µM | IC50 [21]: > 500 µM | IC50 [22]: > 500 µM | IC50 [23]: 91 µM | IC50 [24]: > 500 µM | IC50 [25]: > 500 µM | IC50 [26]: > 500 µM | IC50 [27]: > 500 µM | IC50 [28]: 177 µM | IC50 [29]: > 500 µM | IC50 [30]: > 500 µM | IC50 [31]: > 500 µM | IC50 [32]: > 500 µM | IC50 [33]: > 500 µM | IC50 [34]: > 500 µM | IC50 [35]: > 500 µM
SMILES: Cc1cc2c(cc1C)[n+](Cc1ccccc1Br)cn2Cc1ccc2c(c1)CCO2.[Br-] [B591, 3-(2-bromobenzyl)-1-((2,3-dihydrobenzofuran-5-yl)methyl) -5,6-dimethyl-1H-benzo[d]imidazol-3-ium bromide]
